The text below walks through data of patent publication US20200288710A1, “SUBSTITUTED SULPHONAMIDES FOR CONTROLLING ANIMAL PESTS” (BAYER CROPSCIENCE AKTIENGESELLSCHAFT, priority 2016, published 2020).

Holding throughout (format): in vivo
Assay [1] concerns Myzus persicae. Put plainly: Myzus persicae spray test (Chinese cabbage leaf discs). The following applies: foliar, 120 h, after 5-6 days, read-out: efficacy. In outline:
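Chinese cabbage leaf discs infested with all stages of green peach aphid were sprayed with compound formulated in acetone/DMF and emulsifier-containing water. Efficacy in % was scored after 5-6 days, with 100% meaning all aphids killed and 0% none killed.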

For assay [2], the system named is Tetranychus urticae. Description: Tetranychus urticae spray test, OP-resistant. The following applies: foliar, 144 h, bean leaf discs, after 6 days, read-out: efficacy. As for the experimental part: Tetranychus urticae—Spray Test, OP-Resistant
To produce a suitable preparation of active compound, 1 part by weight of active compound is dissolved using the specified parts by weight of solvent and made up with water containing an emulsifier concentration of 1000 ppm until the desired concentration is attained. To produce further test concentrations, the formulation is diluted with emulsifier-containing water.
Discs of bean leaves (Phaseolus vulgaris) infested with all stages of the greenhouse red spider mite (Tetranychus urticae) are sprayed with an active compound preparation of the desired concentration.
After 6 days, the efficacy in % is determined. 100% means that all the spider mites have been killed; 0% means that no spider mites have been killed.

Assay [3] has as its system Myzus persicae. Description: Myzus persicae oral test. The following applies: 120 h, oral uptake, after 5 days, read-out: efficacy. In outline: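 Compound dissolved in acetone, diluted in water, then mixed 50:150 μl with IPL41 insect medium (33%+15% sugar). Mixed-population green peach aphids feed through a parafilm seal on the solution; mortality scored as % efficacy after 5 days (100% = all killed).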

In assay [4] the test system is Meloidogyne incognita. Description: Meloidogyne incognita test. The following applies: 336 h, lettuce, after 14 days, read-out: nematicidal efficacy (formation of galls). The method, boiled down: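 Active compound in acetone, diluted with water, added to sand-filled vessels with M. incognita eggs/larvae and lettuce seeds. After 14 days, efficacy scored by root gall formation: 100% = no galls, 0% = galls equal to untreated control.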

Assay [5] concerns Phaedon cochleariae. Description: Phaedon cochleariae spray test. The following applies: foliar, 168 h, Chinese cabbage leaf discs, larvae, after 7 days, read-out: efficacy. In outline: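 Compound dissolved in solvent and diluted with water containing 1000 ppm emulsifier to test concentrations. Efficacy read after 7 days as % beetle larvae killed (100% all killed, 0% none).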
Assay [6] concerns Lucilia cuprina. Put plainly: Lucilia cuprina test. The following applies: 48 h, L1 larvae, after 2 days, read-out: efficacy (kill in %). Here is the method: Lucilia cuprina Test Solvent: dimethyl sulphoxide To produce a suitable preparation of active compound, 10 mg of active compound are mixed with 0.5 ml of dimethyl sulphoxide, and the concentrate is diluted with water to the desired concentration. About 20 L1 larvae of the Australian sheep blowfly (Lucilia cuprina) are transferred into a test vessel containing minced horsemeat and the active compound preparation of the desired concentration. After 2 days, the kill in % is determined. 100% means that all the larvae have been killed; 0% means that no larvae have been killed.

Consider `Cn1cc(C(=O)NS(=O)(=O)c2cccc(Cl)c2F)nc1-c1c(F)cccc1F` [Example 315], for which the pest or weed control at 500 g/ha in assay [1] came out at 100%; in assay [2], 90%. The pest or weed control at 20 ppm in assay [3] and in assay [4] was 100% throughout.
`O=C(NS(=O)(=O)CC(F)(F)F)c1cn(-c2ccccc2)c(-c2ccccc2Cl)n1` [Example 74]: the pest or weed control at 500 g/ha in assay [2] worked out at 100%.
Turning to `Cc1cc(C(=O)NS(=O)(=O)c2cc(Cl)ccc2Br)nn1-c1ccccc1C(F)(F)F` [Example 293], the pest or weed control at 500 g/ha in assay [2] came to 100%. In addition, the pest or weed control at 20 ppm in assay [4] is 90%.
For the compound `Cc1cc(C(=O)NS(=O)(=O)c2ccccc2Cl)nn1-c1ccccc1C(F)(F)F` [Example 291], the pest or weed control at 500 g/ha in assay [2] was determined as 90%. In addition, the pest or weed control at 20 ppm in assay [4] was determined as 90%.
On to `Cc1c(F)cccc1S(=O)(=O)NC(=O)c1cn(C)c(-c2c(F)cccc2F)n1` [Example 318], for which the pest or weed control at 500 g/ha in assay [1] came out at 100%; in assay [2], 90%; in assay [5], 100%. In addition, the pest or weed control at 20 ppm in assay [3] turned out to be 100%; in assay [4] it was 90%.
As for `Cn1cc(C(=O)NS(=O)(=O)c2ccc(Cl)cc2)nc1-c1c(F)cccc1F` [Example 46], the pest or weed control at 500 g/ha in assay [1] and in assay [2] was 90% throughout. In addition, the pest or weed control at 20 ppm in assay [4] worked out at 100%.
For the compound `Cn1cc(C(=O)NS(=O)(=O)c2c(Cl)cccc2Cl)nc1-c1cccc(Cl)c1Cl` [Example 568], the figures for the pest or weed control at 500 g/ha in assay [1], in assay [2] and in assay [5] were 100%, 90% and 83%, respectively. The values for the pest or weed control at 20 ppm in assay [3] and in assay [4] were 100% and 90%, respectively.
For the compound `COc1ccc(C)c(S(=O)(=O)NC(=O)c2cn(C)c(-c3ncccc3Cl)n2)c1` [Example 582], the values for the pest or weed control at 500 g/ha in assay [1], in assay [2] and in assay [5] were 100%, 90% and 83%, respectively. Moreover, the pest or weed control at 4 ppm in assay [3] (4 ppm) is 100%. In addition, the pest or weed control at 20 ppm in assay [4] came to 90%.
As to `Cn1cc(C(=O)NS(=O)(=O)c2ccccc2Cl)nc1-c1cnccc1Cl` [Example 495], in assay [2], the pest or weed control at 500 g/ha came to 90%. In addition, the pest or weed control at 20 ppm in assay [4] is 90%.
With `Cc1ccc(S(=O)(=O)NC(=O)c2cn(C)c(-c3c(F)cccc3F)n2)s1` [Example 351], the pest or weed control at 100 g/ha in assay [1] (100 g/ha) worked out at 90%. Besides, the pest or weed control at 500 g/ha in assay [2] was 90%. Also, the pest or weed control at 20 ppm in assay [4] is 90%.
As to `Cc1ccccc1-c1nc(C(=O)NS(=O)(=O)CC(F)(F)F)cn1C` [Example 87], the pest or weed control at 500 g/ha in assay [1] worked out at 100%; in assay [2], 90%.
As for `COc1ccc(Cl)c(S(=O)(=O)NC(=O)c2nc(-c3ccccc3Cl)n(C)c2C)c1` [Example 104], the pest or weed control at 500 g/ha came to 90% in assay [2] and 100% in assay [5]. In addition, the pest or weed control at 20 ppm stood at 100% in assay [3] and 90% in assay [4].
As for `Cn1nc(-c2c(F)cccc2F)nc1C(=O)NS(=O)(=O)c1ccccc1Cl` [Example 407], the pest or weed control at 500 g/ha in assay [2] turned out to be 90%. Besides, the pest or weed control at 20 ppm in assay [4] came out at 90%.
Take `Cc1ccsc1S(=O)(=O)NC(=O)c1cn(C)c(-c2ncccc2F)n1` [Example 573]: the pest or weed control at 500 g/ha in assay [1] and in assay [2] was 90% throughout. Besides, the pest or weed control at 20 ppm in assay [3] turned out to be 100%.
In the case of `COc1ccc(Cl)c(S(=O)(=O)NC(=O)c2nc(-c3c(F)cccc3F)nn2C)c1` [Example 406], the pest or weed control at 500 g/ha in assay [2] was 90%. Further, in assay [4], the pest or weed control at 20 ppm worked out at 90%.
In the case of `CCc1cc(Br)ccc1S(=O)(=O)NC(=O)c1cn(C)c(-c2c(F)cccc2F)n1` [Example 341], the pest or weed control at 500 g/ha in assay [1] was found to be 90%; in assay [5] it was 100%. Also, the pest or weed control at 100 ppm in assay [6] worked out at 100%. The pest or weed control at 20 ppm in assay [3] and in assay [4] was 100% throughout.
Turning to `Cc1cc(S(=O)(=O)NC(=O)c2cn(C)c(-c3ccccc3Cl)n2)c(C)s1` [Example 217], the pest or weed control at 500 g/ha in assay [1] is 90%; in assay [2], 100%; in assay [5] it was 83%. Further, the pest or weed control at 20 ppm in assay [3] was found to be 100%; in assay [4], 90%.
`Cc1cccc(Cl)c1S(=O)(=O)NC(=O)c1cn(C)c(-c2c(F)cccc2F)n1` [Example 364]: the pest or weed control at 500 g/ha in assay [1] and in assay [5] was 100% each time. The pest or weed control at 100 ppm in assay [6] came out at 100%. For the same compound, the pest or weed control at 20 ppm in assay [3] and in assay [4] was 100% throughout.
With `CCS(=O)(=O)NC(=O)c1cn(C)c(-c2c(Cl)cccc2Cl)n1` [Example 82], the pest or weed control at 500 g/ha in assay [1] and in assay [2] was 90% throughout. Besides, in assay [4], the pest or weed control at 20 ppm came out at 90%.
For `Cn1cc(C(=O)NS(=O)(=O)c2c(Cl)cccc2Cl)nc1-c1c(Cl)cccc1Cl` [Example 102], the pest or weed control at 500 g/ha in assay [1] and in assay [5] was 100% each time. Also, in assay [6], the pest or weed control at 100 ppm was determined as 100%. Also, the figures for the pest or weed control at 20 ppm in assay [3] and in assay [4] were 100% and 90%, respectively.
`Cn1cc(C(=O)NS(=O)(=O)c2cccc(Cl)c2Cl)nc1-c1c(F)cccc1F` [Example 173]: the pest or weed control at 500 g/ha in assay [1] was 100%; in assay [2], 90%. Further, the pest or weed control at 20 ppm in assay [3] and in assay [4] was 100% each time.
In the case of `Cc1ccsc1S(=O)(=O)NC(=O)c1cn(C)c(-c2ccccc2Cl)n1` [Example 212], the pest or weed control at 500 g/ha in assay [1] stood at 100%; in assay [2], 90%. Moreover, the results for the pest or weed control at 20 ppm in assay [3] and in assay [4] were 100% and 90%, respectively.
`Cc1cccc(C)c1S(=O)(=O)NC(=O)c1cn(C)c(-c2ccccc2Cl)n1` [Example 218]: the pest or weed control at 500 g/ha in assay [1] and in assay [5] was 100% each time. In assay [6], the pest or weed control at 100 ppm worked out at 100%. In addition, the figures for the pest or weed control at 20 ppm in assay [3] and in assay [4] were 100% and 90%, respectively.
For `COc1ccc(Cl)c(S(=O)(=O)NC(=O)c2cn(C)c(-c3c(Cl)cccc3Cl)n2)c1` [Example 101], the pest or weed control at 500 g/ha turned out to be 90% in assay [1], 90% in assay [2] and 100% in assay [5]. Also, the pest or weed control at 100 ppm in assay [6] is 100%. Moreover, the pest or weed control at 20 ppm was 100% in assay [3] and 90% in assay [4].
For the compound `Cn1cc(C(=O)NS(=O)(=O)c2ccccc2Br)nc1-c1ccccc1Cl` [Example 36], the pest or weed control at 500 g/ha in assay [1] and in assay [5] was 100% each time. Further, the pest or weed control at 100 ppm in assay [6] is 100%. Also, the pest or weed control at 20 ppm in assay [3] and in assay [4] was 100% in each case.
For the compound `CCn1cc(C(=O)NS(=O)(=O)CC)nc1-c1ccccc1Cl` [Example 78], the pest or weed control at 500 g/ha in assay [1] and in assay [2] was 90% throughout. The pest or weed control at 20 ppm in assay [4] worked out at 90%.
In the case of `CCS(=O)(=O)NC(=O)c1nc(-c2ccccc2Cl)n(C)c1C` [Example 70], the pest or weed control at 500 g/ha in assay [1] and in assay [2] was 90% in each case. Moreover, the pest or weed control at 20 ppm in assay [3] was determined as 100%.
